Test results taken from US12433872B2, “Treatment of Acanthamoeba or Balamuthia trophozoites and/or cysts” (GEORGIA STATE UNIVERSITY RESEARCH FOUNDATION, INC., priority 2018, dated 2025).
Where a name gives a salt, the structure may show the parent alone. Read-outs that look alike come from different tables or passages of the source.

Tests used:
[1] = tested on: Acanthamoeba castellanii trophozoites; test: Activity against Acanthamoeba castellanii trophozoites; type: cell-based
[2] = tested on: A549 cells; test: Toxicity to human A549 cells; type: cell-based
[3] = tested on: Acanthamoeba castellanii (ATCC50370) cysts; test: Encystation drug susceptibility / excystation viability assay, 30 day recovery, A. castellanii cysts; type: cell-based; conditions: ATCC50370, 720 h, read-out: A. castellanii 30 day MCC
Method: (§1) The trophozoites of Acanthamoeba were harvested by mechanical detachment and collected via centrifugation at 4000 rpm at 4° C. for 5 minutes. The trophozoites were washed in 10 mL of Neff's Encystment Media (NEM). NEM composition is 20 mM Tris-HCL [pH 8.8] (2.43 g/L), 100 mM KCL (7.46 g/L), 8 mM MgSO4 (962.96 mg/L), 0.4 mM CaCL2 58.81 mg/L) and 1 mM NaHCO3 (84.01 mg/L) (Neff et al. 1964). All reagents were bought from Sigma Aldrich. Centrifugation of the trophozoites was repeated to ensure any residual growth medium was removed. The pellet was resuspended in a final volume of 15 mL of NEM, cultured in 75 cm^2 corning tissue culture flasks and incubated vertically in a thermal shaker, shaken at 100 rpm at 37° C. for 72 hours to produce fully matured cysts. NEM was supplemented with 250 μg of penicillin/streptomycin. Fresh cysts were produced each time for any experimentation.
(§2) At 72 hours the cysts were harvested using a cell scraper and collected via centrifugation at 4000 rpm at 25° C. for 10 minutes. The cells were washed twice in 10 mL of HyClone™ water, Molecular Biology Grade, and centrifugation was repeated to ensure the removal of any residual NEM. The cell suspension was washed with 0.5% sodium dodecyl sulphate (SDS) to remove any remaining trophozoites and immature cysts. The fully mature cysts were further washed twice with 10 mL of HyClone™ water and 1% NEM, centrifugation was repeated to remove any residue of SDS. The concentration of mature cysts was determined using a haemocytometer and adjusted to 1×10^4 cysts/mL in NEM.
(§3) All test compounds were prepared as 5 mg/mL stock solutions in dimethylsulfoxide (DMSO). All compounds were diluted in NEM, serially diluted in 2-fold dilutions 6 or 11 times, yielding a screening concentration range of 1.56 μg/mL to 50 μg/mL or 48 ng/mL to 50 μg/mL with a final highest screening concentration of 1% DMSO.
(§4) Based on this, a strain specific test period and also a 30 day non-specific recovery time were considered. For the 30 day recovery period, the media was changed 5 times to ensure the contents of wells dis not evaporate and have an effect within the results of the assay.
(§5) 90 μL of 1×10^4 Cysts/ml and 10 μL of experimental compounds from the screening plates were produced according to the protocols above and combined into a Corning clear 96 well treated tissue culture plate. Control wells include cysts in non-drug treated, 1% DMSO, NEM (to be used for negative growth control), NEM Blank, PG blank and cysts in non-drug treated, 1% DMSO, PG (to excyst cells and to be used for positive growth control). The total well volume for all wells was 100 μL. The drug exposed plates were screened at 27° C. for 6 or 24 hours only. At the exposure time point the plates were centrifuged at 4000 rpm at 25° C. for 10 minutes and washed twice with phosphate-buffered saline (PBS) to remove any residual experimental compound.
(§6) Once the plate(s) underwent the Encystation drug susceptibility process, all wells except the negative growth control and NEM blank wells received PG growth medium. All plates were left to recover at 27° C. for the strain specific time period of 5, 9 or 11 days depending on the species of Acanthamoeba. At each of the strain specific time points the plates were removed from incubation and microscopically analysed (qualitatively) for the excystation process for the emergence of excysted viable trophozoites or residual cysts. The presence of excysted trophozoites indicated viable amoebae (non-cystistatic or cysticidal—no effect) and the absence of excystation was considered as cystistatic/cysticidal effects.

[4] = tested on: Acanthamoeba healyi cysts; test: Encystation drug susceptibility / excystation viability assay, 30 day recovery, A. healyi cysts; type: cell-based; conditions: 720 h, read-out: A. healyi 30 day MCC
Method: as §1, §2, §3, §4, §5, §6

[5] = tested on: Acanthamoeba culbertsoni (ATCC30171) cysts; test: Encystation drug susceptibility / excystation viability assay, 30 day recovery, A. culbertsoni cysts; type: cell-based; conditions: ATCC30171, 720 h, read-out: A. culbertsoni 30 day MCC
Method: as §1, §2, §3, §4, §5, §6

[6] = tested on: Acanthamoeba cysts; test: 30 day cysticidal studies, species not given; type: cell-based; conditions: for cysticidal activity over 30 day period: in words; for selectivity index (SI): text b496, A549 IC50 versus 30 day MCC
Method: As cells were removed during the 5× media changes for the 30 day time point at concentrations of drugs that allowed excystation, only qualitative, microscopic analysis was performed.

[7] = tested on: B. mandrillaris; conditions: previous in vitro testing, cited from earlier work; for effect against B. mandrillaris: in words
[8] = tested on: Balamuthia mandrillaris trophozoites; test: Activity against Balamuthia mandrillaris trophozoites; type: cell-based; conditions: Balamuthia mandrillaris, read-out: Balamuthia mandrillaris IC50
Method: Balamuthia mandrillaris trophozoites were thawed and grown in 10 ml of BM-3 medium. […] After autoclaving, complete BM-3 media was produced by the addition of 10% fetal bovine serum and 125 μg of penicillin/streptomycin antibiotics. The table describes all of the compounds and the activity against Balamuthia trophozoites compared to the activity for select Acanthamoeba trophozoites shown in Table 5.

[9] = read-out: A. cactellanii Trophozoite IC50
[10] = human A549 cells, read-out: A549 cell IC50
[11] = minimum cysticidal concentration, no recovery up to 30 days
[12] = trophozoites, n = 2, Table 6, read-out: Acanthamoeba castellanii IC50
[13] = read-out: Acanthamoeba castellanii IC50
[14] = Homo sapiens, A549, read-out: A549 cell IC50

Compound: CCCCC(CC)CNC(=N)NC(=N)NCCCCCCNC(=N)NC(=N)NCC(CC)CCCC (stereo not drawn) [Alexidine HCL, alexidine, reference compound]
- IC50 [1, 9]: 1710 nM
- IC50 [2, 10]: 1580 nM
- MCC [3, 11]: 5.37 µM
- MCC [4, 11]: 5.37 µM
- MCC [5, 11]: 5.37 µM
- cysticidal activity over 30 day period [6]: shows cysticidal activity
- selectivity index (SI) [6]: 0.29

Compound: CC[C@H]1OC(=O)[C@H](C)[C@@H](O[C@H]2C[C@@](C)(OC)[C@@H](O)[C@H](C)O2)[C@H](C)[C@@H](O[C@@H]2O[C@H](C)C[C@H](N(C)C)[C@H]2O)[C@](C)(OC)C[C@@H](C)C(=O)[C@H](C)[C@@H](O)[C@]1(C)O [clarithromycin]
- effect against B. mandrillaris [7]: no effect

Compound: N=C(N)c1ccc(OCCCCCOc2ccc(C(=N)N)cc2)cc1 [pentamidine]
- concentration at which most effective drug against B. mandrillaris ([7]; same value in μM): 29.38 µM
- concentration at which most effective drug against B. mandrillaris [7]: 10 µg/mL

Compound: C[C@@H]1[C@H](O)[C@@H](C)/C=C/C=C/C=C/C=C/C=C/C=C/C=C/[C@H](O[C@@H]2O[C@H](C)[C@@H](O)[C@H](N)[C@@H]2O)C[C@@H]2O[C@](O)(C[C@@H](O)C[C@@H](O)[C@H](O)CC[C@@H](O)C[C@@H](O)CC(=O)O[C@H]1C)C[C@H](O)[C@H]2C(=O)O [amphotericin B]
- effect against B. mandrillaris [7]: marginal effects

Compound: CC[C@H]1OC(=O)[C@H](C)[C@@H](O[C@H]2C[C@@](C)(OC)[C@@H](O)[C@H](C)O2)[C@H](C)[C@@H](O[C@@H]2O[C@H](C)C[C@H](N(C)C)[C@H]2O)[C@](C)(O)C[C@@H](C)CN(C)[C@H](C)[C@@H](O)[C@]1(C)O [azithromycin]
- effect against B. mandrillaris [7]: no effect

Compound: N=C(NCCCCCCNC(=N)NC(=N)Nc1ccc(Cl)cc1)NC(=N)Nc1ccc(Cl)cc1 [Chlorhexidine, chlorhexidine, reference compound]
- IC50 [1, 9]: 1010 nM
- IC50 [2, 10]: 3080 nM
- MCC [3, 11]: 100 µM
- MCC [4, 11]: 100 µM
- MCC [5, 11]: 100 µM
- cysticidal activity over 30 day period [6]: little cysticidal activity
- selectivity index (SI) [6]: 0.03

Compound: CC(C)NC(=N)c1ccc2nc(-c3ccc(Oc4ccc(-c5nc6ccc(C(=N)NC(C)C)cc6[nH]5)cc4Cl)c(Cl)c3)[nH]c2c1 [P, 2,2′-(Oxybis(3-chloro-4,1-phenylene))bis(N-isopropyl-1H-benzo[d]imidazole-6-carboximidamide)]
- IC50 [1, 12]: 810 nM
- IC50 [2, 10]: 4910 nM
- MCC [3, 11]: 18 µM
- MCC [4, 11]: 9.99 µM
- MCC [5, 11]: 20 µM
- IC50 ([8]; trophozoites, n = 2): 180 nM

Compound: CC(C)NC(=N)c1ccc2nc(-c3cc(F)c(Oc4ccc(-c5nc6ccc(C(=N)NC(C)C)cc6[nH]5)c(Cl)c4)c(F)c3)[nH]c2c1 [Compound B, 2-(2-Chloro-4-(2,6-difluoro-4-(6-(N-isopropylcarbamimidoyl)-1H-benzo[d]imidazol-2-yl)phenoxy)phenyl)-N-isopropyl-1H-benzo[d]imidazole-6-carboximidamide]
- IC50 [1, 9]: 540 nM
- IC50 [1, 13]: 540 nM
- IC50 [2, 14]: 17100 nM
- MCC [3]: 9.6 µM
- MCC [4]: 3.84 µM
- MCC [5]: 2.88 µM
- IC50 [8]: 400 nM

Compound: CC(C)NC(=N)c1ccc2nc(-c3ccc(Oc4ccc(-c5nc6ccc(C(=N)NC(C)C)cc6[nH]5)c(Br)c4)cc3F)[nH]c2c1 [Compound E, 2-(2-Bromo-4-(3-fluoro-4-(6-(N-isopropylcarbamimidoyl)-1H-benzo[d]imidazol-2-yl)phenoxy)phenyl)-N-isopropyl-1H-benzo[d]imidazole-6-carboximidamide]
- IC50 [1, 9]: 220 nM
- IC50 [1, 13]: 770 nM
- IC50 [2, 14]: 3790 nM
- MCC [3]: 2.75 µM
- MCC [4]: 1.83 µM
- MCC [5]: 1.83 µM
- IC50 [8]: 110 nM

Compound: COc1cc(-c2nc3ccc(C(=N)NC(C)C)cc3[nH]2)ccc1Oc1ccc(-c2nc3ccc(C(=N)NC(C)C)cc3[nH]2)cc1F [J, 2-(3-Fluoro-4-(4-(6-(N-isopropylcarbamimidoyl)-1H-benzo[d]imidazol-2-yl)-2-methoxyphenoxy)phenyl)-N-isopropyl-1H-benzo[d]imidazole-6-carboximidamide]
- IC50 [1, 12]: 950 nM
- IC50 [2, 10]: 4030 nM
- MCC [3, 11]: 11.2 µM
- MCC [4, 11]: 9.34 µM
- MCC [5, 11]: 7.47 µM
- IC50 ([8]; trophozoites, n = 2): 80 nM

Compound: CCC(CC)NC(=N)c1ccc2nc(-c3ccc(Oc4ccc(-c5nc6ccc(C(=N)NC(CC)CC)cc6[nH]5)cc4)cc3)[nH]c2c1 [Compound T]
- IC50 [1, 12]: 1130 nM
- IC50 [2, 10]: 31400 nM
- MCC [3, 11]: 11.4 µM
- MCC [4, 11]: 7.61 µM
- MCC [5, 11]: 5.71 µM
- IC50 ([8]; trophozoites, n = 2): 140 nM

Compound: CC(C)NC(=N)c1ccc2nc(-c3ccc(Oc4ccc(-c5nc6ccc(C(=N)NC(C)C)cc6[nH]5)c(Cl)c4)cc3Cl)[nH]c2c1 [L, 2-2′-(Oxybis(2-chloro-4,1-phenylene))bis(N-isopropyl-3H-benzo[d]imidazole-6-carboximidamide)]
- IC50 [1, 12]: 390 nM
- IC50 [2, 10]: 4170 nM
- MCC [3, 11]: 2.88 µM
- MCC [4, 11]: 2.88 µM
- MCC [5, 11]: 2.88 µM
- IC50 ([8]; trophozoites, n = 2): 80 nM
